Patent US6730792B2, “β3 adrenergic agonists” (Eli Lilly and Company, priority 2000, dated 2004)

Molecular target: T1, human β3 adrenergic receptor (Homo sapiens, UniProt P13945)
T1 construct: expressed in transfected cells; host or cells: DXB-11 Chinese hamster ovary (CHO) cell line, stably transfected (phd expression vector)
Assay: whole cell receptor coupled c-AMP assay, human β3 receptor in CHO cells (EC50, Emax relative to isoproterenol)
Assay type: cell-based
How it was run: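 Stably transfected DXB-11 CHO cells (20,000/well) were exposed to compound for 20 min at 37 °C in HBSS/HEPES buffer with 1 mM IBMX, pH 7.4. cAMP was measured by SPA. EC50 came from a four-parameter logistic fit, and Emax is the maximal response as a percentage of isoproterenol's.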

[1] = % intrinsic activity relative to isoproterenol maximal response, average of at least 3 runs, c-AMP in transfected CHO cells
[2] = Emax ± standard error of the mean, average of at least 3 runs except where n = 1, compound tested in the isolated form listed
[3] = Emax ± SEM, average of at least 3 runs except as otherwise indicated, tested as the isolated form listed

T1 sequence (P13945 whole entry): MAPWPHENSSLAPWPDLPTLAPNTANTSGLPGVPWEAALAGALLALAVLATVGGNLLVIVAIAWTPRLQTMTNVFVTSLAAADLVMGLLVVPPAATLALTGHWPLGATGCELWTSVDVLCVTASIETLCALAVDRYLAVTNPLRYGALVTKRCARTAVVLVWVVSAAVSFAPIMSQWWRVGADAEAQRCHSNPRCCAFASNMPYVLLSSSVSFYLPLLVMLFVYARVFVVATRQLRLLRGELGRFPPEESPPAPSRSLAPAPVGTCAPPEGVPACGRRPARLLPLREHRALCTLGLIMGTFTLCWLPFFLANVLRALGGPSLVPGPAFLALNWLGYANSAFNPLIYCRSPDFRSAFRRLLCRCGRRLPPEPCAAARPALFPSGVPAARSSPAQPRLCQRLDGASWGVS

Row | Emax (%) ± SEM [2] | SMILES | other results
1 | – | CC(C)(Cc1ccc(Oc2ccc(C#N)cn2)cc1)NC[C@H](O)COc1ccccc1-c1cccnc1 [Example 388] | Emax (%) ± SEM [1]: <10%
2 | 47.0 ± 2.5% | CC(C)(Cc1ccc(Oc2cccnc2C#N)cc1)NC[C@H](O)COc1ccccc1-c1cscn1.Cl [Example 241] | –
3 | 66.5 ± 3.9% | CC(C)(Cc1ccc(Oc2ccc(C(N)=O)cn2)cc1)NC[C@H](O)COc1ccccc1-c1ncco1 [Example 45] | –
4 | – | CC(C)(Cc1ccc(Oc2ncccc2C#N)cc1)NC[C@H](O)COc1ccccc1-c1ccsc1 [Example 380] | Emax (%) ± SEM [1]: 57.4 ± 4.1%
5 | 70.8 ± 3.1% | CC(C)(Cc1ccc(Oc2ncccc2C#N)cc1)NC[C@H](O)COc1ccccc1-c1ccon1.Cl [Example 60] | –
6 | <10% | CC(C)(Cc1ccc(Oc2ccc(C(N)=O)cn2)cc1)NC[C@H](O)COc1cccc(C2=NCCN2)c1 [Example 59] | –
7 | 56.1 ± 2.9% | CC(C)(Cc1ccc(Oc2cccc(Cl)c2C#N)cc1)NC[C@H](O)COc1ccccc1-c1cscn1.Cl [Example 245] | –
8 | 76.5 ± 1.7% | CC(C)(Cc1ccc(Oc2cccc(Cl)c2C(N)=O)cc1)NC[C@H](O)COc1ccccc1-c1cccs1.O=C(O)C(F)(F)F [Example 218] | –
9 | 46.0 ± 1.7% | CC(C)(Cc1ccc(Oc2cccc(Cl)n2)cc1)NC[C@H](O)COc1ccccc1-c1ccno1.O=C(O)C(F)(F)F [Example 177] | –
10 | – | CC(C)(Cc1ccc(Oc2cccnc2C#N)cc1)NC[C@H](O)COc1ccccc1-c1ccco1.Cl [Example 425] | Emax (%) ± SEM [1]: 67.1 ± 3.0%
11 | 40.4 ± 8.8% | CC(C)(Cc1ccc(Oc2ccc(C(F)(F)F)cc2Cl)cc1)NC[C@H](O)COc1ccccc1-c1ccno1.O=C(O)C(F)(F)F [Example 172] | –
12 | <10% | CC(C)(Cc1ccc(Oc2ncccc2C(N)=O)cc1)NC[C@H](O)COc1cccc(C2=NCCN2)c1 [Example 88] | –
13 | 67.4 ± 3.9% | CC(C)(Cc1ccc(Oc2cccc(Cl)n2)cc1)NC[C@H](O)COc1ccccc1-c1cccs1.O=C(O)C(F)(F)F [Example 175] | –
14 | 78.1 ± 6.6% | CC(C)(Cc1ccc(Oc2ncccc2C(N)=O)cc1)NC[C@H](O)COc1ccccc1-c1ccns1.O=C(O)C(=O)O [Example 96] | –
15 | 42.7 ± 9.4% | CC(C)(Cc1ccc(Oc2ccc(S(C)(=O)=O)cc2)cc1)NC[C@H](O)COc1ccccc1-n1cccc1.Cl [Example 265] | –
16 | – | CC(C)(Cc1ccc(Oc2ncccc2C(N)=O)cc1)NC[C@H](O)COc1ccccc1-c1ccc(Cl)s1.Cl [Example 418] | Emax (%) ± SEM [1]: 74.4 ± 6.5%
17 | 58.7 ± 1.8% | CC(C)(Cc1ccc(Oc2ccc(C#N)cn2)cc1)NC[C@H](O)COc1ccccc1-c1nccs1 [Example 6] | –
18 | – | CC(C)(Cc1ccc(Oc2ccc(C#N)cn2)cc1)NC[C@H](O)COc1c(F)cccc1-c1ccsc1.Cl [Example 426] | Emax (%) ± SEM [1]: 61.0 ± 7.1%
19 | 73.8 ± 6.0% | CC(C)(Cc1ccc(Oc2ncccc2C(N)=O)cc1)NC[C@H](O)COc1ccccc1-c1nccs1 [Example 70] | –
20 | 54.5 ± 3.3% | CC(C)(Cc1ccc(Oc2ccc(C(N)=O)cc2F)cc1)NC[C@H](O)COc1ccccc1-c1cccs1.O=C(O)C(F)(F)F [Example 190] | –

Row | Emax (%) ± SEM [2] | SMILES | other results
21 | 40.3 ± 6.9% | CC(C)(Cc1ccc(Oc2ccc(C(N)=O)cc2F)cc1)NC[C@H](O)COc1ccccc1-c1ccno1.O=C(O)C(F)(F)F [Example 192] | –
22 | 38.3 ± 5.7% | CC(C)(Cc1ccc(Oc2ccc(C#N)cc2F)cc1)NC[C@H](O)COc1ccccc1-c1nccs1.O=C(O)C(F)(F)F [Example 188] | –
23 | 55.2 ± 3.6% | CC(C)(Cc1ccc(Oc2ccc(C#N)cc2)cc1)NC[C@H](O)COc1ccccc1-c1cccs1.O=C(O)C(F)(F)F [Example 119] | –
24 | – | CC(C)(Cc1ccc(Oc2ccc(C#N)cn2)cc1)NC[C@H](O)COc1ccccc1-c1cc2ccccc2s1 [Example 384] | Emax (%) ± SEM [1]: 45.4 ± 5.6%
25 | 39.0 ± 0.6% | CC(C)(Cc1ccc(Oc2ncccc2C(N)=O)cc1)NC[C@H](O)COc1ccccc1-n1ccc(C#N)c1.Cl [Example 271] | –
26 | 43.5 ± 1.4% | CC(C)(Cc1ccc(Oc2ccc(S(C)(=O)=O)cc2)cc1)NC[C@H](O)COc1ccccc1-c1nccs1.O=C(O)C(F)(F)F [Example 131] | –
27 | 24.9 ± 9.3% | CC(C)(Cc1ccc(Oc2ncccc2C(N)=O)cc1)NC[C@H](O)COc1cccc(-c2ccnc(N)n2)c1 [Example 91] | –
28 | 31.5 ± 2.8% | CC(C)(Cc1ccc(Oc2ncccc2C(N)=O)cc1)NC[C@H](O)COc1ccccc1-c1ccnc(N)n1 [Example 90] | –
29 | 53.7 ± 4.3% | CC(C)(Cc1ccc(Oc2ccc(S(C)(=O)=O)cc2Cl)cc1)NC[C@H](O)COc1ccccc1-c1ccno1.O=C(O)C(F)(F)F [Example 183] | –
30 | 64.6 ± 3.3% | CC(C)(Cc1ccc(Oc2ncccc2C(N)=O)cc1)NC[C@H](O)COc1ccccc1-c1nnco1 [Example 86] | –
31 | 40.3 ± 7.9% | CC(C)(Cc1ccc(Oc2ccc(C(N)=O)cc2)cc1)NC[C@H](O)COc1ccccc1-c1ccno1.O=C(O)C(F)(F)F [Example 125] | –
32 | 48.3 ± 9.9% | COC(=O)c1ccc(Oc2ccc(CC(C)(C)NC[C@H](O)COc3ccccc3-c3ccno3)cc2)c(Cl)c1 [Example 141] | –
33 | 43.6 ± 9.7% | CC(C)(Cc1ccc(Oc2ccccn2)cc1)NC[C@H](O)COc1ccccc1-c1ccno1.O=C(O)C(F)(F)F [Example 2] | –
34 | 24.7 ± 5.2% | CC(C)(Cc1ccc(Oc2ncccc2C#N)cc1)NC[C@H](O)COc1ccc(-c2ccno2)cc1.O=C(O)C(F)(F)F [Example 62] | –
35 | – | CC(C)(Cc1ccc(Oc2ncccc2C#N)cc1)NC[C@H](O)COc1ccccc1-c1ccncc1 [Example 375] | Emax (%) ± SEM [1]: 35.1 ± 7.3%
36 | 22.0 ± 5.3% | CC(C)(Cc1ccc(Oc2ccc(C(N)=O)cn2)cc1)NC[C@H](O)COc1ccccc1N1CCCC1=O [Example 22] | –
37 | 49.7 ± 3.9% | CC(C)(Cc1ccc(Oc2ccc(C(N)=O)cc2Cl)cc1)NC[C@H](O)COc1ccccc1-c1nccs1.O=C(O)C(F)(F)F [Example 165] | –
38 | 55.0 ± 1.3% | Cn1ccc(-c2ccccc2OC[C@@H](O)CNC(C)(C)Cc2ccc(Oc3ncccc3C#N)cc2)n1 [Example 4] | –
39 | – | CC(C)(Cc1ccc(Oc2cccnc2C#N)cc1)NC[C@H](O)COc1ccccc1-c1ccoc1.Cl [Example 307] | Emax (%) ± SEM [3]: 74.4 ± 1.8%
40 | – | CC(C)(Cc1ccc(Oc2ncccc2C(N)=O)cc1)NC[C@H](O)COc1ccccc1-c1ncco1.Cl [Example 308] | Emax (%) ± SEM [3]: 71.2 ± 5.8%

Row | Emax (%) ± SEM [2] | SMILES | other results
41 | – | CC(C)(Cc1ccc(Oc2ncccc2C(N)=O)cc1)NC[C@H](O)COc1ccccc1-c1cccnc1 [Example 391] | Emax (%) ± SEM [1]: 22.5 ± 1.5%
42 | – | CC(C)(Cc1ccc(Oc2ccc(C(N)=O)cn2)cc1)NC[C@H](O)COc1ccccc1-c1ccc(Cl)s1.Cl [Example 410] | Emax (%) ± SEM [1]: 76.0 ± 5.0%
43 | 63.7 ± 3.1% | CC(C)(Cc1ccc(Oc2ccc(S(C)(=O)=O)cc2F)cc1)NC[C@H](O)COc1ccccc1-c1cccs1.O=C(O)C(F)(F)F [Example 223] | –
44 | 76.9 ± 7.4% | CC(C)(Cc1ccc(Oc2ncc(C(F)(F)F)cc2Cl)cc1)NC[C@H](O)COc1ccccc1-c1cccs1.O=C(O)C(F)(F)F [Example 159] | –
45 | 87.1 ± 11.9% | CCOC(=O)c1cccnc1Oc1ccc(CC(C)(C)NC[C@H](O)COc2ccccc2-c2cccs2)cc1.O=C(O)C(F)(F)F [Example 108] | –
46 | 66.8 ± 5.5% | CC(C)(Cc1ccc(Oc2cnccn2)cc1)NC[C@H](O)COc1ccccc1-c1cccs1.O=C(O)C(F)(F)F [Example 153] | –
47 | 20.7 n = 1% | COC(=O)c1ccc(Oc2ccc(CC(C)(C)NC[C@H](O)COc3ccccc3-c3ccnn3C)cc2)nc1 [Example 113] | –
48 | 35.8 ± 4.6% | CC(C)(Cc1ccc(Oc2ccc(C#N)cc2)cc1)NC[C@H](O)COc1ccccc1-c1nccs1.O=C(O)C(F)(F)F [Example 120] | –
49 | 62.9 ± 2.2% | CC(C)(Cc1ccc(Oc2ccc(C(N)=O)cn2)cc1)NC[C@H](O)COc1ccccc1-c1nccs1 [Example 17] | –
50 | 48.9 ± 2.5% | COC(=O)c1ccc(Oc2ccc(CC(C)(C)NC[C@H](O)COc3ccccc3-c3nccs3)cc2)c(Cl)c1 [Example 140] | –
51 | 50.4 ± 6.3% | CC(C)(Cc1ccc(Oc2cccc(Cl)c2C(N)=O)cc1)NC[C@H](O)COc1ccccc1-c1ccno1.O=C(O)C(F)(F)F [Example 219] | –
52 | 58.2 ± 7.2% | COC(=O)c1ccc(Oc2ccc(CC(C)(C)NC[C@H](O)COc3ccccc3-c3nccs3)cc2)nc1 [Example 116] | –
53 | 55.0 ± 4.8% | CC(C)(Cc1ccc(Oc2ccc(C(F)(F)F)cc2Cl)cc1)NC[C@H](O)COc1ccccc1-c1cccs1.O=C(O)C(F)(F)F [Example 170] | –
54 | 59.1 ± 6.0% | CC(C)(Cc1ccc(Oc2ccncc2)cc1)NC[C@H](O)COc1ccccc1-c1cccs1.O=C(O)C(F)(F)F [Example 202] | –
55 | 20.5 n = 1% | CC(C)(Cc1ccc(Oc2ccc(C(N)=O)cn2)cc1)NC[C@H](O)COc1cccc(-c2ccnc(N)n2)c1 [Example 38] | –
56 | 72.1 ± 4.5% | CC(C)(Cc1ccc(Oc2ccccc2C#N)cc1)NC[C@H](O)COc1ccccc1-c1cccs1.O=C(O)C(F)(F)F [Example 286] | –
57 | – | CC(=O)c1ccc(-c2cccc(F)c2OC[C@@H](O)CNC(C)(C)Cc2ccc(Oc3ncccc3C#N)cc2)s1.O=C(O)C(F)(F)F [Example 439] | Emax (%) ± SEM [1]: 75.0 ± 9.6%
58 | 48.8 ± 2.5% | CC(C)(Cc1ccc(Oc2ccc(C#N)cn2)cc1)NC[C@H](O)COc1ccccc1-c1ccno1 [Example 7] | –
59 | 46.7 ± 3.6% | CC(C)(Cc1ccc(Oc2ccc(C(N)=O)cc2)cc1)NC[C@H](O)COc1ccccc1-c1nccs1.O=C(O)C(F)(F)F [Example 124] | –
60 | 80.7 ± 4.4% | CC(C)(Cc1ccc(Oc2ncccc2C(N)=O)cc1)NC[C@H](O)COc1ccccc1-c1cccs1.Cl [Example 69] | –
